# According to patent publication US20090048190A1, “Antiviral activity and resolution of 2-hydroxymethyl-5(5-fluorocytosin-1-yl)-1,3-oxathiolane” (priority 1990, published 2009):
# Where “and” joins values, the source holds several entries; their conditions need not be identical. Equal entries are not always repeated. Where two headings read alike, the source gives them in different places.
# Experiments:
# HIV-1 (strain LAV) = assay type: cell-based
# Description: It is often desirable to screen a number of racemic mixtures of nucleosides as a preliminary step to determine which warrant further resolution into enantiomerically enriched components and further evaluation of antiviral activity. The ability of nucleosides to inhibit HIV can be measured by various experimental techniques. The technique used herein, and described in detail below, measures the inhibition of viral replication in phytohemagglutinin (PHA) stimulated human peripheral blood mononuclear (PBM) cells infected with HIV-1 (strain LAV). The amount of virus produced is determined by measuring the virus-coded reverse transcriptase enzyme. The amount of enzyme produced is proportional to the amount of virus produced.
# A. Three-day-old phytohemagglutinin-stimulated PBM cells (10^6 cells/ml) from hepatitis B and HIV-1 seronegative healthy donors were infected with HIV-1 (strain LAV) at a concentration of about 100 times the 50% tissue culture infectious dose (TICD 50) per ml and cultured in the presence and absence of various concentrations of antiviral compounds.
# B. Approximately one hour after infection, the medium, with the compound to be tested (2 times the final concentration in medium) or without compound, was added to the flasks (5 ml; final volume 10 ml). AZT was used as a positive control.
# C. The cells were exposed to the virus (about 2×10^5 dpm/ml, as determined by reverse transcriptase assay) and then placed in a CO2 incubator. HIV-1 (strain LAV) was obtained from the Center for Disease Control, Atlanta, Ga. The methods used for culturing the PBM cells, harvesting the virus and determining the reverse transcriptase activity were those described by McDougal et al. (J. Immun. Meth. 76, 171-183, 1985) and Spira et al. (J. Clin. Meth. 25, 97-99, 1987), except that fungizone was not included in the medium (see Schinazi, et al., Antimicrob. Agents Chemother. 32, 1784-1787 (1988); Id., 34:1061-1067 (1990)).
# D. On day 6, the cells and supernatant were transferred to a 15 ml tube and centrifuged at about 900 g for 10 minutes. Five ml of supernatant were removed and the virus was concentrated by centrifugation at 40,000 rpm for 30 minutes (Beckman 70.1 Ti rotor). The solubilized virus pellet was processed for determination of the levels of reverse transcriptase. Results are expressed in dpm/ml of sampled supernatant. Virus from smaller volumes of supernatant (1 ml) can also be concentrated by centrifugation prior to solubilization and determination of reverse transcriptase levels.
# [1] = system: uninfected human PBM cells
# Description: The cells were counted after 6 days using a hemacytometer and the trypan blue exclusion method, as described by Schinazi et al., Antimicrobial Agents and Chemotherapy, 22(3), 499 (1982).
# HIV-2 = assay: Antiretroviral activity in different cell systems, HIV-2; assay type: cell-based; conditions: PBMC (ROD2)
# Procedure: Cell lines were obtained from either human donors, AIDS Research and Reference Reagent Program, NIH, Rockville, Md., ATCC, or the Red Cross. The CEM thymidine kinase deficient cells were prepared by sequential passage of CEM cells in the presence of 5-bromo-2′-deoxyuridine.
# HIV [2] = conditions: compared with AZT; cited from earlier work
# [3] = system: AZT-resistant HIV isolates; conditions: in vitro, isolates from patients treated with AZT for longer than 36 weeks; cited from earlier work
# [4] = molecular target: T1, HIV-1 reverse transcriptase (RT) (Human immunodeficiency virus type 1 group M subtype B, UniProt P04585); assay: Inhibition of HIV-1 reverse transcriptase by FTC triphosphate; assay type: biochemical; conditions: sequencing analysis, HIV-RT (C-stops)
# T1 construct: HIV-1 reverse transcriptase (RT)
# Procedure: Toxicity and pharmacokinetic studies confirm the usefulness of FTC as an antiviral agent for pharmaceutical administration. FTC and its enantiomers are nontoxic to peripheral human bone marrow cells at concentrations up to 50 µM and other cell lines at concentrations up to 200 μM. FTC-TP is a major intracellular metabolite in PBMC and HepG2 cells.
# human PBM cells = assay: Egress of radiolabeled FTC from human PBM cells; assay type: in vitro ADME; conditions: human PBM cells after 24 h pulse with 10 μM
# Procedure: This study measures the time needed for intracellular levels of triphosphates to decline. Studies were conducted in duplicate. Uninfected cells (2×10^6 ml) were suspended in the appropriate medium supplemented with serum (10 ml per timepoint) and incubated at 37° C. in a 5% CO2 incubator. The radiolabeled FTC concentration was 10 μM. After pulsing the cells with the labeled compound for 24 hours, the cells were thoroughly washed and then replenished with fresh medium without the antiviral drugs (0 hr). At 0, 2, 4, 6, 12, 24, and 48 hours (second incubation time), the cells were removed, and immediately extracted with 60% cold methanol/water. The extract was obtained by centrifugation and removal of the cell pellet. The extracts were lyophilized and then stored at −70° C. Prior to analysis, the material was resuspended in 250 microliters of HPLC buffer and immediately analyzed. Quantitation of intracellular parent drug and metabolic derivatives was conducted by HPLC, using either a Micromeritics or Hewlett-Packard model 1090 PHLC system with an anion exchange Partisil 10 SAX column (Whatman, Inc.), at a flow rate of 1 ml/min, 1 kpsi pressure, with UV detection at 262 nm. The mobile phase consisted of deionized water (A), 2 mM NaH2PO4/16 mM NaOAc (pH=6.6) (B), 15 mM NaH2PO4/120.2 mM NaOAc (pH=6.6) (C), and 100 mM NaH2PO4/800 mM NaOAc (pH=6.6) (D). […]
# HIV [5] = assay: microbe, parasite or virus in culture; assay type: cell-based; conditions: Human immunodeficiency virus 1; MT4 system
# [6] = CSF/serum ratio in rhesus monkeys; assay type: in vivo; conditions: 1 hour after treatment
# [7] = human PBM cells, HIV-1 strain LAV, Table 3, read-out: Antiviral EC50
# [8] = enantiomers resolved by HPLC (Example 4), Table 4, read-out: EC50
# [9] = PBM cells, procedure similar to Example 6, read-out: EC50
compound,measurement,setting,value
O=c1[nH]c(=O)n([C@H]2CS[C@@H](CO)O2)cc1Cl [DLS-028],EC50,HIV-1 (strain LAV); [7],60.8 µM
Nc1nc(=O)n([C@@H]2CS[C@H](CO)O2)cc1C(F)(F)F [DLS-053],EC50,HIV-1 (strain LAV); [7],60.7 µM
"Nc1nc(=O)n(C2CSC(CO)O2)cc1F (single isomer, unassigned; (-)) [(−)-FTC, (−)-β-L-2-hydroxymethyl-5-(5-fluorocytosin-1-yl)-1,3-oxathiolane]",DPM/ml,HIV-1 (strain LAV); 0.001 μM,"76,275 DPM/ml"
same,DPM/ml,HIV-1 (strain LAV); 0.005 μM,"58,590 DPM/ml"
same,DPM/ml,HIV-1 (strain LAV); 0.01 μM,"75,350 DPM/ml"
same,DPM/ml,HIV-1 (strain LAV); 0.05 μM,"28,890 DPM/ml"
same,DPM/ml,HIV-1 (strain LAV); 0.1 μM,"13,175 DPM/ml"
same,DPM/ml,HIV-1 (strain LAV); 0.5 μM,"9,485 DPM/ml"
same,EC50,HIV-1 (strain LAV); [8],0.02 µM
same,EC50,HIV-1 (strain LAV); [7],0.008 µM
same,IC50,[1],> 100 µM
same,EC50,HIV-2,0.0007 µM
O=c1[nH]c(=O)n([C@H]2CS[C@@H](CO)O2)cc1I [DLS-029],EC50,HIV-1 (strain LAV); [7],> 100 µM
same,IC50,[1],> 100 µM
Nc1nc(=O)n([C@H]2CS[C@@H](CO)O2)cc1Br [DLS-021],EC50,HIV-1 (strain LAV); [7],77.4 µM
CC(=O)Nc1nc(=O)n(C2CSC(CO)O2)cc1F (racemic) [N′-acetyl derivative of (±)-FTC],EC50,HIV-1 (strain LAV); [9],0.0028 µM
"Nc1ccn(C2CSC(CO)O2)c(=O)n1 (racemic) [(±)-BCH-189, 2-hydroxymethyl-5-(cytosin-1-yl)-1,3-oxathiolane]",activity against HIV,HIV [2],approximately the same activity against HIV as AZT
same,inhibition of replication of AZT-resistant HIV isolates,[3],inhibit the replication of AZT-resistant HIV isolates
Nc1nc(=O)n([C@@H]2CS[C@H](COP(=O)(O)OP(=O)(O)OP(=O)(O)O)O2)cc1F (racemic) [FTC-TP],DNA chain termination,[4],potent DNA chain terminator
same,intracellular half-life,human PBM cells,approximately 12 hours
O=c1[nH]c(=O)n([C@H]2CS[C@@H](CO)O2)cc1Br [DLS-044],EC50,HIV-1 (strain LAV); [7],> 100 µM
same,IC50,[1],> 100 µM
Cc1cn([C@H]2CS[C@@H](CO)O2)c(=O)nc1N [DLS-011],EC50,HIV-1 (strain LAV); [7],> 10 µM
O=c1ccn(C2CSC(CO)O2)c(=O)[nH]1 (stereo not shown) [DLS-009],EC50,HIV-1 (strain LAV); [7],> 100 µM
same,IC50,[1],> 100 µM
O=c1[nH]c(=O)n([C@H]2CS[C@@H](CO)O2)cc1F [DLS-027],EC50,HIV-1 (strain LAV); [7],> 100 µM
same,IC50,[1],> 100 µM
Nc1nc(=O)n([C@H]2CS[C@@H](CO)O2)cc1Cl [DLS-023],EC50,HIV-1 (strain LAV); [7],38.7 µM
"Cc1cn([C@H]2C[C@H](N=[N+]=[N-])[C@@H](CO)O2)c(=O)[nH]c1=O [AZT, 3′-azido-3′-deoxythymidine, reference compound]",IC50,HIV [5],0.09 µM
"Nc1nc(=O)n([C@H]2CS[C@@H](CO)O2)cc1F [(+)-FTC, (+)-β-D-2-hydroxymethyl-5-(5-fluorocytosin-1-yl)-1,3-oxathiolane]",% Inhibition (Corrected),HIV-1 (strain LAV); 0.001 μM,3.8%
same,DPM/ml,HIV-1 (strain LAV); 0.001 μM,"94,340 DPM/ml"
same,% Inhibition (Corrected),HIV-1 (strain LAV); 0.005 μM,−10.6%
same,DPM/ml,HIV-1 (strain LAV); 0.005 μM,"107,430 DPM/ml"
same,% Inhibition (Corrected),HIV-1 (strain LAV); 0.01 μM,−1.8%
same,DPM/ml,HIV-1 (strain LAV); 0.01 μM,"99,465 DPM/ml"
same,% Inhibition (Corrected),HIV-1 (strain LAV); 0.05 μM,11.8%
same,DPM/ml,HIV-1 (strain LAV); 0.05 μM,"87,120 DPM/ml"
same,% Inhibition (Corrected),HIV-1 (strain LAV); 0.1 μM,12.7%
same,DPM/ml,HIV-1 (strain LAV); 0.1 μM,"86,340 DPM/ml"
same,% Inhibition (Corrected),HIV-1 (strain LAV); 0.5 μM,71.4%
same,DPM/ml,HIV-1 (strain LAV); 0.5 μM,"33,225 DPM/ml"
same,EC50,HIV-1 (strain LAV); [8],0.28 µM
same,EC50,"HIV-1 (strain LAV); enantiomers resolved by method of Example 3, FIG. 6, read-out: EC50",0.84 µM
same,IC50,[1],> 100 µM
same,EC50,HIV-2,0.026 µM
CCCC(=O)OC[C@@H]1O[C@H](n2cc(F)c(N)nc2=O)CS1 (racemic) [5′-O-butyrate ester of (±)-FTC],EC50,HIV-1 (strain LAV); [9],0.0017 µM
O=c1[nH]c(=O)n(C2CSC(CO)O2)cc1F (stereo not shown) [FTU],CSF/Serum Ratio of deaminated metabolite (FTU),"[6]; I.V. FTC 33.3 mg/kg, individual monkeys",0.024 and 0.032 and 0.052
same,CSF/Serum Ratio of deaminated metabolite (FTU),"[6]; I.V. FTC 33.3 mg/kg, mean",0.036
same,CSF/Serum Ratio of deaminated metabolite (FTU),"[6]; P.O. FTC 33.3 mg/kg, individual monkeys",0.026 and 0.037 and 0.055
same,CSF/Serum Ratio of deaminated metabolite (FTU),"[6]; P.O. FTC 33.3 mg/kg, mean",0.039
Nc1nc(=O)n([C@H]2CS[C@@H](CO)O2)cc1I [DLS-026],EC50,HIV-1 (strain LAV); [7],0.72 µM
Cc1cn(C2CSC(CO)O2)c(=O)[nH]c1=O (stereo not shown) [DLS-010],EC50,HIV-1 (strain LAV); [7],64.4 µM
